Source: US20260240802A1, “USE OF MYRIOCIN AS ADJUVANT IN GLAUCOMA SURGERY” (priority 2023, published 2026)
Entries after “also recorded” stand apart in the source; their conditions may differ. Like-named read-outs stand apart in the source and are kept apart here.

Tests used:
[1] = tested on: fibroblasts; conditions: Josamycin 69.4 μg/ml (JM69.4); cited from earlier work
[2] = tested on: human dermic fibroblasts; assay type: cell-based; conditions: for total cells after 24 hours of treatment: human
Protocol: (§1) The fibroblasts, cultivated in culture medium DMEM (EuroClone) additioned with 10% of Fetal Bovine Serum (EuroClone) and 1% of penicillin/streptomycin (Sigma-Aldrich), were kept in incubator at 37° C., 5% of CO2 until reaching the full confluence which corresponds approximately to 1.2-1.3*10^6 cells. After detachment from the culture flasks (T75) with a solution of trypsin/EDTA, 1.5-2.5*10^5 or 4.0*10^5 fibroblasts were respectively plated in 60-mm or 100-mm wide Petri dishes for the subsequent treatments.
The fibroblasts, cultivated in ninety-six-well plates, were divided into the experimental groups: ctr, Mito and Myr. 24 hours after sowing (T0), the controls were collected for counting the live and dead cells and one proceeded with the treatment of the groups Mito and Myr for the subsequent 24 hours, with the respective substances. After detachment with a solution of trypsin/EDTA, the fibroblasts were isolated by centrifugation (100 g×6 minutes) and the obtained precipitate was resuspended in phosphate buffer. To the cellular suspension, 10% of 0.4% Trypan Blue dye solution was added. The live cells and the dead cells, coloured blue for the intracellular permeation of the dye through the damaged plasmatic membrane, are counted by using Bürker camera (Fabiani C., et al., Naunyn-Schmiedebergs Arch. Pharmacol. 2017; 390:741-751).

[3] = tested on: postoperative fibrosis; conditions: after 5 years, mitomycin C in intraoperative therapy (before: 24-74% after 4 years); cited from earlier work
[4] = tested on: human dermic fibroblasts; experiment: Scratch test assay; assay type: cell-based
Protocol: as §1
In six-well plates, 150,000 fibroblasts/well were plated and left to proliferate until reaching a confluence of 80-90%. At this point, defined time zero (T0), the cellular monolayer is damaged by creating a vertical groove corresponding to the well diameter.

[5] = tested on: human dermic fibroblasts; assay type: cell-based; conditions: fibroblasts activated with TGFβ, compared with mitomycin C
Protocol: The anti-fibrotic activity of myriocin, compared to that of mitomycin C, was evaluated in vitro by using human dermic fibroblasts of healthy subjects, available commercially.
as §1
The cells were divided into six experimental groups: • 1. control group without treatment (denominated ctr) • 2. group treated with TGFβ (denominated TGFβ) • 3. group treated with Myriocin and TGFβ (denominated Myr/TGFβ) • 4. group treated with Mitomycin C and TGFβ (denominated Mito/TGFβ) • 5. group treated with Myriocin (denominated Myr) • 6. group treated with Mitomycin C (denominated Mito)
On the day of treatment, in groups ctr, TGFβ, Myr, Myr/TGFβ the culture medium was replaced by fresh medium. The groups Myr and Myr/TGFβ were pretreated for 1 hour with myriocin 5 mM (Sigma-Aldrich) so as to obtain a final concentration of 50 μM. […]

[6] = tested on: CTGF (Connective Tissue Growth Factor); experiment: RT-PCR expression of transcript CTGF in fibroblasts; assay type: cell-based, human; conditions: myriocin 50 μM 1 hour pretreatment + 24 hours with TGFβ 5 ng/ml
Protocol: (§2) Expression of the transcript (mRNA) of αSMA, CTGF, MMP-9 evaluated by RT-PCR, in fibroblasts: control (ctr); stimulated with TGFβ (TGFβ); pretreated 1 hour with Myriocin and for the subsequent 24 hours in combination with TGFβ (Myr/TGFβ); pretreated 5 minutes with Mitomycin C, washed and treated for the subsequent 24 hours with TGFβ (Mito/TGFβ); pretreated 1 hour with Myriocin and for the subsequent 24 hours with Myriocin (Myr); pretreated 5 minutes with Mitomycin C, washed and for the subsequent 24 hours with culture medium (Mito). The results represent the average±standard error of 5 experiments and they are represented as variation with respect to the control (ratio between the expression in the various groups and the control). The control is set equal to 1 and designated in figure with the dotted line. […]
(§3) The following transcripts of interest were analysed: • αSMA (α Smooth Muscle Actin): marker of the activation of the fibroblasts to miofibroblasts; • CTGF (Connective Tissue Growth Factor): protein of the extracellular matrix with pro-fibrotic activity; • MMP-9 (Matrix metalloproteinase 9): enzyme which degrades the proteins of the extracellular matrix.

[7] = molecular target: T1, serine-palmitoyl transferase (Homo sapiens, UniProt O15269+O15270); experiment: mass spectrometry of the ceramide content of fibroblasts; assay type: cell-based; conditions: myriocin 50 μM
T1 construct: the fibroblasts were isolated by centrifugation; endogenous in cells
T1 sequence (O15269 1-473): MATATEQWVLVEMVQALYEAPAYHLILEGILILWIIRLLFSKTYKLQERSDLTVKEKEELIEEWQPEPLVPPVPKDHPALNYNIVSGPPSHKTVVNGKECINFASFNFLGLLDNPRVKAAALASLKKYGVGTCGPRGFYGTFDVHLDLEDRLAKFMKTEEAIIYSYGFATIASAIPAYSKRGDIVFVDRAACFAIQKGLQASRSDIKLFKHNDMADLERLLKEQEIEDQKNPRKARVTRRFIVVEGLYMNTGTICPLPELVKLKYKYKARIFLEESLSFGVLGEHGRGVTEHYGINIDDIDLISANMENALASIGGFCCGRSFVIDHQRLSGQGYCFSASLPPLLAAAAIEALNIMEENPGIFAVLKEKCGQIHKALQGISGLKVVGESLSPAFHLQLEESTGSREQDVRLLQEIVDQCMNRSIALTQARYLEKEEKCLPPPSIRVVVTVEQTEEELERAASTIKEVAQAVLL
T1 sequence (O15270 1-562): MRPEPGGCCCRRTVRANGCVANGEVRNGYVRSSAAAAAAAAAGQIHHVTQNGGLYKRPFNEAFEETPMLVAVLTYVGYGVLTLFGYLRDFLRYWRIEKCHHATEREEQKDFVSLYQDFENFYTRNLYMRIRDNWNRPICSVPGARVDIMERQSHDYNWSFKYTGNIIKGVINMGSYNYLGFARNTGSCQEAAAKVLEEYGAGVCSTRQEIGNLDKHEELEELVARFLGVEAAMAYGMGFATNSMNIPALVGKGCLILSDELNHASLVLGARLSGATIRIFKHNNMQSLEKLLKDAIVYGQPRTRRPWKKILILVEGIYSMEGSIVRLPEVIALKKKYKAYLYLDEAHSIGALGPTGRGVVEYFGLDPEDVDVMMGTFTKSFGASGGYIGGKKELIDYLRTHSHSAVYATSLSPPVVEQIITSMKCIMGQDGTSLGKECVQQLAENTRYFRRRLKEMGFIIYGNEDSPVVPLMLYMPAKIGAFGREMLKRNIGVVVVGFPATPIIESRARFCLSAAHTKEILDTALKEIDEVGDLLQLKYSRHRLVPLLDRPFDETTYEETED
T1 sequence (Q969W0 1-71 partner): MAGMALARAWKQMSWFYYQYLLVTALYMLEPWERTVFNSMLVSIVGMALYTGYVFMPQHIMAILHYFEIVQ
Protocol: On the day of treatment, in groups ctr, TGFβ, Myr, Myr/TGFβ the culture medium was replaced by fresh medium. The groups Myr and Myr/TGFβ were pretreated for 1 hour with myriocin 5 mM (Sigma-Aldrich) so as to obtain a final concentration of 50 μM. […] The pretreatment with mitomycin C, lasting 5 minutes to simulate the administration time in the operating room of the drug on the patient suffering from glaucoma, was interrupted by two washes, each one lasting 2 minutes, with phosphate buffer (PBS). To the groups TGFβ, Myr/TGFβ and Mito/TGFβ, TGFβ 200 ng/ml is then added to obtain a final concentration of 5 ng/ml, as reported in literature (Wu N. et al., Mol Cell Biochem. 2020; 470:175-188). The fibroblasts were then put in incubator for 24 hours, until performing the different analyses.
After detachment with a solution of trypsin/EDTA, the fibroblasts were isolated by centrifugation (100 g×6 minutes). The obtained precipitate was resuspended in phosphate buffer (PBS), centrifuged at 100 g×6 minutes, resuspended again in phosphate buffer (PBS) and centrifuged at 500 g×5 minutes at 4° C. The precipitate was resuspended in 100 μl of PBS containing a mixture of protease inhibitors (Protease Inhibitor Cocktails, EDTA-free, Roche) and kept at −20° C. until use. The extraction of the lipids and the analysis of the samples for evaluating the ceramide content, whose synthesis is locked by inhibiting the enzyme serine-palmitoyl transferase by Myr, follow published protocols (Morano C. et al., Metabolites. 2022; 12 (5): 450).

[8] = tested on: MMP-9 (Matrix metalloproteinase 9); experiment: RT-PCR expression of transcript MMP-9 in fibroblasts; assay type: cell-based, human; conditions: myriocin 50 μM 1 hour pretreatment + 24 hours with TGFβ 5 ng/ml
Protocol: as §2, §3

[9] = tested on: αSMA (α Smooth Muscle Actin); experiment: RT-PCR expression of transcript αSMA in fibroblasts; assay type: cell-based, human; conditions: myriocin 50 μM 1 hour pretreatment + 24 hours with TGFβ 5 ng/ml
Protocol: as §2, §3

[10] = tested on: collagen; experiment: transcription and translation of collagen in fibroblasts (FIG. 4); assay type: cell-based; conditions: pre-treated 1 hour with Myriocin 50 µM, then 24 hours in combination with TGFβ 5 ng/ml
Protocol: FIG. 4: Ctrl: not treated fibroblasts; TGFβ: fibroblasts treated 24 hours with TGFβ 5 ng/ml; TGFβ/Myr: fibroblasts pre-treated 1 hour with Myriocin 50 µM and for subsequent 24 hours in combination with TGFβ 5 ng/ml; TGFβ/Mito: fibroblasts pre-treated 5 minutes with Mitomycin 50 µM, and for subsequent 24 hours with TGFβ 5 ng/ml in absence of Mitomycin.

[11] = tested on: fibroblasts; experiment: proliferation/vitality MTT assay; assay type: cell-based; conditions: 24 hours, Myriocin 50 μM, not treated fibroblasts = 100%
Protocol: These proliferation data result to be an improvement with respect to those obtained by the authors with JM47.2, which is equivalent to a concentration of approximately 56 μM, not considered among the effective concentrations in anti-fibrotic sense.

## CO[C@@H]1[C@@H](O[C@@H]2O[C@H](C)[C@@H](O[C@H]3C[C@@](C)(O)[C@@H](OC(=O)CC(C)C)[C@H](C)O3)[C@H](N(C)C)[C@H]2O)[C@@H](CC=O)C[C@@H](C)[C@@H](O)/C=C/C=C/C[C@@H](C)OC(=O)C[C@H]1OC(C)=O [Josamycin]
[1]
  proliferation percentage of the fibroblasts: less than 50%

## CO[C@@]12[C@H](COC(N)=O)C3=C(C(=O)C(C)=C(N)C3=O)N1C[C@@H]1N[C@@H]12 [Mitomycin C]
[2]
  change of total cells after 24 hours: halved
  total cells after 24 hours of treatment: 5466 total cells/well
[3]
  percentage of failure of the surgical therapy: 23-51%
[4]; 50 μM, 24 and 48 hours
  cellular death: induced a progressive cellular death
[4]; 50 μM, 24 and 48 hours, listed as Mitomycin
  migration of fibroblasts after damage of the cellular carpet: migrate only partially
[4]; 50 μM, 24 and 48 hours, listed as mitomycin C
  migration of fibroblasts after damage of the cellular carpet: reduced the migration of fibroblasts
[4]; between T1 (24 hours) and T2 (48 hours)
  morphological change of fibroblasts: progressive morphological change (from tapering to rounded)

## CCCCCCC(=O)CCCCCC/C=C/C[C@@H](O)[C@H](O)[C@@](N)(CO)C(=O)O [Myriocin]
[2]; after 24 hours vs T0
  increase of total cells after 24 hours: about 70%
[2]
  total cells after 24 hours of treatment: 11733 total cells/well
[5]
  anti-fibrotic efficacy: comparable to mitomycin C
[5]; listed as myriocin
  anti-fibrotic efficacy: comparable to that of the drug mitomycin C
[6]
  reduction of CTGF transcript expression increase induced by TGFβ: more effective than mitomycin C
[7]; Myr group vs ctr
  reduction of ceramide level with respect to basal ctr: about 15%
  reduction of dihydroceramide level with respect to basal ctr: ~25%
[7]; Myr/TGFβ vs TGFβ, TGFβ 5 ng/ml
  reduction of ceramide level with respect to the group stimulated with TGFβ: ~50%
  reduction of dihydroceramide level with respect to the group stimulated with TGFβ: ~60%
[8]
  reduction of MMP-9 transcript expression increase induced by TGFβ: more effective than mitomycin C; also recorded: reducing the expression of MMP-9
[9]
  reduction of αSMA transcript expression increase induced by TGFβ: more effective than mitomycin C; also recorded: reduces the expression of αSMA
[10]
  transcription (panel A) and translation (panel B) of collagen: capable of controlling the transcription (panel A) and the translation (panel B) of collagen
[4]; 50 μM, 24 and 48 hours
  migration of fibroblasts after damage of the cellular carpet: migrate only partially
[4]; 50 μM, 24 and 48 hours, listed as myriocin
  migration of fibroblasts after damage of the cellular carpet: reduced the migration of fibroblasts
[11]
  % proliferation (relative proliferation/vitality index): higher than 60%
[11]; listed as MYR
  % proliferation (relative proliferation/vitality index): 62%
